Test results reported in patent US20070142341A1, “Use of steroid derivatives for the treatment of angiotensin ll related disease e.g. cardiovascular and proliferative disorders” (priority 2003, published 2007).

Tests used:
[1] = tested on: rat aortic smooth muscle cells (RASMC); assay: 3H-methylthymidine incorporation into rat aortic smooth muscle cells stimulated with Ang II; type: cell-based; settings: for Tritiated thymidine uptake / Effect on tritium incorporation induced by Ang II: 48 hours; for Tritiated thymidine uptake: serum-free medium, control 57.6, Ang II alone 87.1; for Effect on tritium incorporation induced by Ang II: Ang II 10^−7 M
Description: (§1) Aortic smooth muscle cells (ASMCs) were isolated from rat thoracic and abdominal artery (RASMC) and bovine aorta (BASMC) by the media explant method and cultured over several passages.
(§2) Segments of both abdominal and thoracic aortas were obtained from rats by careful dissection from killed rats. Segments of aorta were obtained from calves under anaesthesia. The segments of aorta were placed in a depression slide containing tissue culture medium, after which the adventitia and the outer portion of each segment was carefully removed under a dissecting microscope. The remaining inner portion of the tissue and the intima were removed to a separate dissecting dish and washed several times with fresh culture medium. At this point each segment was cut into approximately 1 mm squares and placed on 25 cm^2 tissue culture flask. The flasks were loosely capped and placed in a humidified CO2 incubator After two hours, 4 ml of RPMI-1640 culture medium supplemented with 100 units/ml of penicillin, […] streptomycin, […] L-glutamine and 20% […] was carefully added to the flasks without dislodging the tissue. Samples were fed with fresh medium after one week. The cells from the explants were relatively confluent within a period of approximately 2 weeks. They were then rinsed with PBS, and subsequently trypsinized with a solution of 0.125% trypsin and 0.02% EDTA in PBS for 1-2 min al 37° C. The resulting suspension of cells was pipetted into 75 cm^2 tissue culture flasks containing 10 ml culture medium and incubated as above.
(§3) Experiments were performed with cells from passages 3 to 5.
^3H-methylthymidine incorporation into rat aortic smooth muscle cells (RASMC). Quiescent RASMC (0.3×10^5/ml/well) were incubated with serum-free medium (SFM) containing Ang II (10^−7 M) with or without different concentrations of trilostane for 48 hours. The results are shown in Table 1. ^3H-methylthymidine incorporation into RASMC was increased in the Ang II treated group.
Using the same tritiated thymidine uptake methodology as for Example 1, the actions of Losartan on angiotensin II-stimulated cell proliferation were tested in the presence and absence of trilostane.

[2] = tested on: myocardial injury; settings: rat model, angiotensin-induced injury, treatment with eplerenone; cited from earlier work
[3] = tested on: LV dysfunction and remodeling; settings: dogs with chronic heart failure, 3 months of treatment, cited from earlier work
[4] = tested on: severe congestive heart failure (CHF); settings: patients with severe congestive heart failure, given in addition to ACE inhibitors; cited from earlier work
[5] = tested on: rat aortic smooth muscle cells (RASMC); assay: Cell count for rat aortic smooth muscle cells stimulated with Ang II; type: cell-based; settings: 48 hours; for Cell Count: 20% FBS RPMI-1640, control 12.00 × 10^4, Ang II alone 21.30 × 10^4; for Effect on Ang II stimulated increase in cell number: Ang II 10^−7 M
Description: as §1, §2, §3
Cell count for rat aortic smooth muscle cells (RASMC). RASMC (0.5×10^5/ml/well) were incubated with 20% FBS RPMI-1640 medium containing Ang II (10^−7 M) with or without different concentrations of trilostane for 48 hours.

[6] = tested on: circulating adrenal steroids; assay: Circulating plasma adrenal steroids in whole, healthy rats (radioimmunoassay, FIG. 1); type: in vivo, rat
Protocol: Trilostane has been used in treatments that are aimed at suppressing adrenal steroid secretion. Examples of adrenal steroids include cortisol, aldosterone and corticosterone. In practice, in patients with normally functioning adrenals, circulating adrenal steroids are reduced only at high trilostane dosage levels upwards of 8 to 10 mg/kg/day equivalent, and this is the regime most frequently used (Beardwell et al. 1985, Clin Endocrinol (Oxf), 23, 413-21, Engelhardt and Weber 1994, J Steroid Biochem Mol Biol, 40, 261-7). […] This can be shown by testing the levels of circulating adrenal steroids pre- and post-treatment and assessing whether or not the concentrations of adrenal steroids have been reduced. The levels of circulating adrenal steroids in the plasma can be tested by collecting circulating blood from a vein. Plasma is obtained by centrifugation and plasma steroid (for example, cortisol and aldesterone for humans, corticosterone and aldosterone in rats) is assayed using a conventional radioimmunoassay. Suitable corticosterone radioammunoassay kits are available from Amersham Biosciences UK Limited. Suitable aldosterone radioimmunoassay kits are available from Diagnostic Products Corporation.

[7] = tested on: circulating adrenal steroids; assay: Circulating corticosterone and aldosterone in male Wistar rats after 5 days of trilostane (FIG. 3a, b); type: in vivo, rat; settings: trilostane 4 mg/kg per day for 5 days, versus vehicle control
Protocol: Male Wistar rats (˜500 g) were treated with 0.1 ml ethanol in cotton seed oil with trilostane 4 mg/kg per day for 5 days. Control animals received the vehicle alone. Animals were then treated with 0.1 ml (500 u) heparin IP, before killing by stunning and cervical dislocation. Blood was collected from neck vessels, centrifuged to obtain plasma which was stored at −20° C. until required for steroid analysis. Corticosterone and aldosterone concentrations were assayed using commercially available kits (Diagnostic Systems Laboratories Inc., Webster, Tex., USA). Circulating concentrations of corticosterone (FIG. 3 (a)) and aldosterone (FIG. 3(b)) are shown for control animals and animals receiving trilostane treatment.

[8] = tested on: vascular smooth muscle cells; assay: Fura-2 [Ca2+]i signal response to angiotensin II in smooth muscle cells cultured from trilostane treated rats; type: cell-based, rat; parameters: key: + = calcium response; − = no response; settings: cells (TTSMC) from rats given trilostane 4 mg/kg per day for 5 days
Protocol: Male Wistar rats (˜500 g) were treated with 0.1 ml ethanol in cotton seed oil with trilostane 4 mg/kg per day for 5 days. Control animals received the vehicle alone. Animals were then treated with 0.1 ml (500 u) heparin IP, before killing by stunning and cervical dislocation. Blood was collected from neck vessels, centrifuged to obtain plasma which was stored at −20° C. until required for steroid analysis. Corticosterone and aldosterone concentrations were assayed using commercially available kits (Diagnostic Systems Laboratories Inc., Webster, Tex., USA). Circulating concentrations of corticosterone (FIG. 3 (a)) and aldosterone (FIG. 3(b)) are shown for control animals and animals receiving trilostane treatment. […] Primary cultures were established of RASMC obtained from trilostane treated and control animals, using the established methods. For [Ca^2+]i measurement, the cells were loaded with 1 μM fura-2 for 30 min in medium-modified Krebs-Ringer bicarbonate solution (3.6 mM K^+, 1.2 mM Ca^2+, 0.5 mM Mg^2+, 5 mM Hepes and 20 mM HCO^−) at 37° C. For simultaneous measurements of measuring the fluorescence of fura-2, the cells plated on coverslips were mounted on the stage of an inverted microscope (Zeiss) in a modified Krebs-Ringer bicarbonate solution. The excitation wavelengths were 340 and 380 nm, and emission was detected at 510 nm. [Ca^2+]i was calculated from the ratio of fluorescence intensities at excitation wavelengths of 340 and 380 nm. Fields of cells, ˜10 cells per field, were tested from control and trilostane treated animals. The results are shown in Table 3 and FIGS. (c) and (d) wherein the arrow indicates the time of application of angiotensin II. Characteristic calcium signals obtained by stimulation of vascular smooth muscle cells from control animals (FIG. 3(c)) and trilostane treated animals (FIG. 3(d)) by 10 nmol/L angiotensin II.

[9] = tested on: AT1 receptor mRNA; assay: AT1 receptor mRNA expression by RT-PCR and real-time quantitative RT-PCR in RASMC (FIG. 4); type: cell-based, rat; settings: 48 hours, trilostane added to angiotensin II, FIG. 4, P<0.01
Protocol: […] Real-time RT-PCR was performed using Brilliant SYBR Green QRT-PCR Master Mix Kit, 1-step based on real-time detection of accumulated fluorescence (M×300P, Stratagene, Amsterdam). Results are means, SEM too small to show. **=P<0.01.

[10] = tested on: circulating adrenal steroids; settings: patients with normally functioning adrenals; cited from earlier work
[11] = Ang II 10^−7 M + trilostane 10^−5 M
[12] = Ang II 10^−7 M + trilostane 10^−6 M
[13] = Ang II 10^−7 M + trilostane 10^−7 M
[14] = Ang II 10^−7 M + trilostane 10^−8 M
[15] = Ang II 10^−7 M + trilostane 10^−9 M
[16] = trilostane at 10^−6 and 10^−5 M
[17] = trilostane at 10^−9, 10^−8 and 10^−7 M

Q: Which “Action on angiotensin II-stimulated cell proliferation (tritiated thymidine uptake)” value ([1]; Losartan with angiotensin II, absence of trilostane, FIG. 2) does the source give for `CCCCc1nc(Cl)c(CO)n1Cc1ccc(-c2ccccc2-c2nn[nH]n2)cc1` [Losartan] here?
A: significantly eliminated the stimulatory action of angiotensin II

Q: And the “Cell proliferation (tritiated thymidine uptake) compared with controls” value ([1]; losartan alone group, FIG. 2)?
A: not different from controls

Q: With `COC(=O)[C@@H]1CC2=CC(=O)CC[C@]2(C)[C@@]23O[C@@H]2C[C@@]2(C)[C@@H](CC[C@@]24CCC(=O)O4)[C@H]13` [eplerenone] as the compound, how does the “COX-2 expression in the media of coronary arteries” value [2] read?
A: markedly attenuated

Q: And the Myocardial injury [2]?
A: markedly attenuated

Q: What about the “Osteopontin expression in the media of coronary arteries” value [2] of the same compound?
A: markedly attenuated

Q: And the “Reduction in cardiomyocyte cross-sectional area” value ([3]; compared with control)?
A: 28%

Q: What about the “Reduction of volume fraction of reactive interstitial fibrosis” value ([3]; compared with control) of the same compound?
A: 37%

Q: And the “Reduction of volume fraction of replacement fibrosis” value ([3]; compared with control)?
A: 34%

Q: What about the “LV end-diastolic wall stress” value ([3]; increased significantly in control dogs) of the same compound?
A: decreased significantly

Q: And the “End-diastolic volume, end-systolic volume, and EF” value ([3]; volumes increased significantly in control dogs)?
A: remained unchanged

Q: With `CC(=O)S[C@@H]1CC2=CC(=O)CC[C@]2(C)[C@H]2CC[C@@]3(C)[C@@H](CC[C@@]34CCC(=O)O4)[C@H]12` [spironolactone] as the compound, how does the Mortality [4] read?
A: significantly reduced mortality

Q: Which results are given for `C[C@]12CC[C@H]3[C@@H](CC[C@@]45O[C@@H]4C(O)=C(C#N)C[C@]35C)[C@@H]1CC[C@@H]2O` [trilostane, (4α,5α-17β)-4,5-epoxy-3,17-dihydroxyandrost-2-ene-2carbonitrile]?
A: Tritiated thymidine uptake [1, 11]: 42.7 dpm; Tritiated thymidine uptake [1, 12]: 74.9 dpm; Tritiated thymidine uptake [1, 13]: 89.1 dpm; Tritiated thymidine uptake [1, 14]: 101.88 dpm; Tritiated thymidine uptake [1, 15]: 96.7 dpm; Cell proliferation (tritiated thymidine uptake) ([1]; trilostane additionally present with Losartan, FIG. 2, P<0.05 / P<0.01): decreased cell proliferation still further to less than control values; Effect on tritium incorporation induced by Ang II [1, 16]: inhibited; Effect on tritium incorporation induced by Ang II [1, 17]: not at 10^−9, 10^−8 and 10^−7 M; Cell Count [5, 11]: 14.25 × 10^4; Cell Count [5, 12]: 14.00 × 10^4; Cell Count [5, 13]: 20.00 × 10^4; Cell Count [5, 14]: 21.95 × 10^4; Cell Count [5, 15]: 21.00 × 10^4; Effect on Ang II stimulated increase in cell number [5, 16]: inhibited; Effect on Ang II stimulated increase in cell number [5, 17]: not at 10^−9, 10^−8 and 10^−7 M; Circulating corticosterone levels ([6]; rats, trilostane 4 mg/kg/day or 8 mg/kg/day): Neither dose (4 mg/kg/day or 8 mg/kg/day) affects circulating corticosterone levels; Concentrations of aldosterone in circulating plasma ([6]; rats, trilostane 4 mg/kg/day, FIG. 1b): does not reduce concentrations of aldosterone in circulating plasma; Concentrations of aldosterone in circulating plasma ([6]; whole, healthy rats, trilostane 8 mg/kg/day, FIG. 1a): reduces concentrations of aldosterone in circulating plasma; Circulating concentrations of corticosterone ([7]; FIG. 3(a)): no significant differences; Circulating concentrations of aldosterone ([7]; FIG. 3(b)): no significant differences; Calcium signal response to angiotensin II ([8]; Ang II 10^−6 M): +; Calcium signal response to angiotensin II ([8]; Ang II 10^−7 M): −; Calcium signal response to angiotensin II ([8]; Ang II 10^−8 M, control cells (NSMC) +): −; Calcium signal response to angiotensin II ([8]; Ang II 10^−9 M, control cells (NSMC) −): −; Calcium signal response to angiotensin II ([8]; Ang II 10^−10 M, control cells (NSMC) −): −; Calcium signal response to angiotensin II ([8]; Ang II 10^−11 M, control cells (NSMC) −): −; mRNA transcription of the gene coding for the angiotensin II type 1 receptor (AT1) [9]: reduced even further; Dosage level at which circulating adrenal steroids are reduced [10]: 8 to 10 mg/kg/day
